Test results as given in patent US20020164266A1, “Microbicidal mixtures” (priority 2001, published 2002).

Legend:
Type in all cases: cell-based
[1] = system: Pseudomonas fluorescens; test: Synergism (BNPD/MIT), MIC values for Pseudomonas fluorescens; conditions: read-out: MIC values for Pseudomonas fluorescens
Source text: (§1) The mixtures according to the invention have synergistic activity. The observed synergism can be determined by the following mathematical equation (see F. C. Kull, P. C. Elisman, H. D. Sylwestrowicz and P. K. Mayer, Appl. Microbiol. 9, 538 (1961): [formula]
(§2) Qa=the amount of component A in the active compound mixture which achieves the desired effect, i.e. no microbial growth.
(§3) QA=the amount of component A which, when used on its own, suppresses the growth of the microorganisms.
(§4) Qb=the amount of component B in the active compound mixture which suppresses the growth of the micoorganisms.
(§5) QB=the amount of component B which, when used on its own, suppresses the growth of the microorganisms.
(§6) A synergistic index of SI<1 indicates a synergistic effect for the mixture in question. […] All parts and percentages are by weight unless otherwise indicated.
Test pathogen: Pseudomonas fluorescens
(§7) In brackets=mixing ratios of the pure active compounds

[2] = system: Bacillus subtilis; test: Synergism (BNPD/MIT), MIC values for Bacillus subtilis; conditions: read-out: MIC values for Bacillus subtilis
Source text: as §1, §2, §3, §4, §5, §6
Test pathogen: Bacillus subtilis
as §7

[3] = system: Pseudomonas aeruginosa; test: Synergism (BNPD/MIT), MIC values for Pseudomonas aeruginosa; conditions: read-out: MIC values for Pseudomonas aeruginosa
Source text: as §1, §2, §3, §4, §5, §6
Test pathogen: Pseudomonas aeruginosa
as §7

| Compound | MIC [1] [µg/mL] | MIC [2] [µg/mL] | MIC [3] [µg/mL] |
| --- | --- | --- | --- |
| O=[N+]([O-])C(Br)(CO)CO [BNPD, 2-bromo-2-nitropropanediol] | 10 | 10 | 10 |
| Cn1sccc1=O [MIT, 2-methyl-2H-isothiazol-3-one] | 10 | 25 | 10 |
